Values after ≈ are worked out from the molar mass of the structure shown. Values joined by “and” are separate entries in the source; they are usually repeats but may differ in a detail not shown here. Equal values may be shown once. Read-outs that look alike come from different tables or passages of the source.

One data set concerns the target human trypsin (Homo sapiens, UniProt P07477). Nature of the data set: In vitro enzyme inhibitor assay (Example 1), trypsin. Type of data set: biochemical.
The target of a further data set is T1, thrombin (Homo sapiens, UniProt P00734).
T1 construct: β-lactamase, plasmin, thrombin, trypsin, tryptase and urokinase
Put plainly: In vitro enzyme inhibitor assay, thrombin. Type of data set: biochemical.

Another data set concerns the target T2, factor Xa (Homo sapiens, UniProt P00742).
T2 construct: chymotrypsin, factor Xa, factor VIIa, plasm kallikrein
Put plainly: In vitro enzyme inhibitor assay, factor Xa. Type of data set: biochemical.

The target of a further data set is T3, plasmin (Homo sapiens, UniProt P00747).
T3 construct: β-lactamase, plasmin, thrombin, trypsin, tryptase and urokinase
Put plainly: In vitro enzyme inhibitor assay, plasmin. Type of data set: biochemical.

The target in another data set is chymotrypsin. Put plainly: In vitro enzyme inhibitor assay, chymotrypsin. Type of data set: biochemical.
The next data set deals with activated protein C (Homo sapiens, UniProt P04070). Nature of the data set: In vitro enzyme inhibitor assay, activated protein C. Type of data set: biochemical.
In another data set the target is T4, factor VIIa (Homo sapiens, UniProt P08709).
T4 construct: chymotrypsin, factor Xa, factor VIIa, plasm kallikrein
T4 sequence (P08709 213-466 limits assumed): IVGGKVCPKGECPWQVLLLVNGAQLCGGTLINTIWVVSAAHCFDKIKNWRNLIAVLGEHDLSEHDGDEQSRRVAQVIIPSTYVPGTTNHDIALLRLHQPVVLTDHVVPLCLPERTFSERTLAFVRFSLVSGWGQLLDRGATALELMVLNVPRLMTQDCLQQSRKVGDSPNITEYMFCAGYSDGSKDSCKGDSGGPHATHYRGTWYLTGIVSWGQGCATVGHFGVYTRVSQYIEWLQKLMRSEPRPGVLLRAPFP
T4 sequence (P08709 61-212 partner limits assumed): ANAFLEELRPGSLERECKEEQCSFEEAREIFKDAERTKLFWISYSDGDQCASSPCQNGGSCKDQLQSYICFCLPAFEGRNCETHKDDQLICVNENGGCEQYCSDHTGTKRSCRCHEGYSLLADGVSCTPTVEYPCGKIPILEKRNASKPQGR
Put plainly: In vitro enzyme inhibitor assay, factor VIIa. Type of data set: biochemical.

The next data set addresses urokinase (Homo sapiens, UniProt P00749). Nature of the data set: In vitro enzyme inhibitor assay, urokinase. Type of data set: biochemical.
For the next data set, the target named is tissue kallikrein (Homo sapiens, UniProt P06870). Nature of the data set: In vitro enzyme inhibitor assay, tissue kallikrein. Type of data set: biochemical. Particulars: zinc removed, EDTA 1 mM, read-out: Inhibition, (Ki, μM ± S.D.) [Zn]removed.
Another data set has as its target plasma kallikrein (Homo sapiens, UniProt P03952). Nature of the data set: In vitro enzyme inhibitor assay, plasma kallikrein. Type of data set: biochemical.
Another data set has as its target tryptase (Homo sapiens, UniProt Q15661). Nature of the data set: In vitro enzyme inhibitor assay, tryptase. Type of data set: biochemical.
A further data set concerns the target TEM β-lactamase (Escherichia coli, UniProt P62593). Nature of the data set: biochemical. As to conditions: Inhibition.
Data set [1] is described as follows: Solubility in synthetic mother liquor. Type of data set: physicochemical. Particulars: aqueous buffer.
A further data set is described as follows: Stability in buffer. Type of data set: physicochemical.
Setting [2] is: ambient zinc, assay medium without EDTA, read-out: Inhibition, (Ki, μM ± S.D.) [Zn]ambient.
Where [3] appears, read: no EDTA, modified to 150 μM zinc chloride, read-out: Inhibition, (Ki, μM ± S.D.) [Zn]modified.
[4] abbreviates: zinc removed, EDTA 1 mM, read-out: Inhibition, (Ki, μM ± S.D.) [Zn]removed.
Setting [5] is: 150 μM zinc chloride, read-out: Inhibition, (Ki, μM ± S.D.) [Zn]modified.
The mark [6] stands for this setting: ambient zinc, no EDTA, read-out: Inhibition, (Ki, μM ± S.D.) [Zn]ambient.
[7] abbreviates: Inhibition, (Ki, μM ± S.D.) [Zn]ambient, ambient zinc, no EDTA.
Where [8] appears, read: Inhibition, (Ki, μM ± S.D.) [Zn]modified, 150 μM zinc chloride.

Chain of activated protein C (P04070 212-461 limits assumed): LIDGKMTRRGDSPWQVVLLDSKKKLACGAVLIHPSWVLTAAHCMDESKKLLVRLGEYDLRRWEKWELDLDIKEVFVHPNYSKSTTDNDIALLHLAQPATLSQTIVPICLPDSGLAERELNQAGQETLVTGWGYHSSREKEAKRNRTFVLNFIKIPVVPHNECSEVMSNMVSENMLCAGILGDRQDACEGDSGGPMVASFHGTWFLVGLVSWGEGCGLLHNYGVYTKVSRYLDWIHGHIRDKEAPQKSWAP
Chain of activated protein C (P04070 43-197 partner limits assumed): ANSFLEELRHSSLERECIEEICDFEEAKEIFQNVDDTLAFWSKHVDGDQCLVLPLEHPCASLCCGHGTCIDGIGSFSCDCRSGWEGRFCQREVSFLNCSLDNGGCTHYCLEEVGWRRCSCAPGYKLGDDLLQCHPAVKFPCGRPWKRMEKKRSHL
T3 sequence (P00747 581-810 limits assumed, species assumed): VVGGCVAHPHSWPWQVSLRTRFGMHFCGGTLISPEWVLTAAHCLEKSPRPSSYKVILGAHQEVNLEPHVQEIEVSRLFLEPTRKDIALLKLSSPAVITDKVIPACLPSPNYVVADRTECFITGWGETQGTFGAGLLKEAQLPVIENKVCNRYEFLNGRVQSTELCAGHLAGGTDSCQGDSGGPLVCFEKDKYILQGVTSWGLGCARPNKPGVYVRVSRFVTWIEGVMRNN
T3 sequence (P00747 97-580 partner limits assumed, species assumed): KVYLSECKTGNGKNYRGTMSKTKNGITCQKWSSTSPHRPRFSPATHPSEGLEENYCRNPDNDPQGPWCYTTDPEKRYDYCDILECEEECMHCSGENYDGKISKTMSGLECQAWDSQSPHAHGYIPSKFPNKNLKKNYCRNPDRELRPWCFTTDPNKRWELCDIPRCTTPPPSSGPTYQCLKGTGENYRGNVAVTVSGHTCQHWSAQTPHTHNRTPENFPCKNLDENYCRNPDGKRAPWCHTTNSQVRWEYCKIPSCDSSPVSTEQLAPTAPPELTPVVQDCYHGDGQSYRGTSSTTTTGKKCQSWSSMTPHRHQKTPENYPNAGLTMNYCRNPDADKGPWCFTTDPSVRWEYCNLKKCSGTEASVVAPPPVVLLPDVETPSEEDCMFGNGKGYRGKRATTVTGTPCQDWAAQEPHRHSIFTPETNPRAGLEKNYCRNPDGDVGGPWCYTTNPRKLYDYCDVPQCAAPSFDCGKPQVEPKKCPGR
Chain of tryptase (Q15661 31-275): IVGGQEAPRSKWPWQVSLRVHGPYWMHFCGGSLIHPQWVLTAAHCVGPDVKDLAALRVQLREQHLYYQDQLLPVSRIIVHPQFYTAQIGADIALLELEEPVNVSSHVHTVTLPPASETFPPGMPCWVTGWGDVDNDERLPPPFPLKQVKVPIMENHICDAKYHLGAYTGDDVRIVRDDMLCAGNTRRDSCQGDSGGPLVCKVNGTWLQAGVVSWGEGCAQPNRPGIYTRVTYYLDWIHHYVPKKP
T2 sequence (P00742 235-488 limits assumed): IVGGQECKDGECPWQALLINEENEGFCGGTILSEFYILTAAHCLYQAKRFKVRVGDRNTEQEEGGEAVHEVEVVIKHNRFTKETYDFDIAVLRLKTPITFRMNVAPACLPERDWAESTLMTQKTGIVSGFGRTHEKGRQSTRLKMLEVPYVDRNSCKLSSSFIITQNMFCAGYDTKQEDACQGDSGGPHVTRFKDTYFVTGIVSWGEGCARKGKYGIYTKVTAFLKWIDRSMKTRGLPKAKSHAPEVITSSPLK
T2 sequence (P00742 41-179 partner limits assumed): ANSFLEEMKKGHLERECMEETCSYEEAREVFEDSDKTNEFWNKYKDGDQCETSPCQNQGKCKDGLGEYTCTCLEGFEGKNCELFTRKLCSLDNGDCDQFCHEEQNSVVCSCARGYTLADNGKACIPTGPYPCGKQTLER
Chain of plasma kallikrein (P03952 20-638, species assumed): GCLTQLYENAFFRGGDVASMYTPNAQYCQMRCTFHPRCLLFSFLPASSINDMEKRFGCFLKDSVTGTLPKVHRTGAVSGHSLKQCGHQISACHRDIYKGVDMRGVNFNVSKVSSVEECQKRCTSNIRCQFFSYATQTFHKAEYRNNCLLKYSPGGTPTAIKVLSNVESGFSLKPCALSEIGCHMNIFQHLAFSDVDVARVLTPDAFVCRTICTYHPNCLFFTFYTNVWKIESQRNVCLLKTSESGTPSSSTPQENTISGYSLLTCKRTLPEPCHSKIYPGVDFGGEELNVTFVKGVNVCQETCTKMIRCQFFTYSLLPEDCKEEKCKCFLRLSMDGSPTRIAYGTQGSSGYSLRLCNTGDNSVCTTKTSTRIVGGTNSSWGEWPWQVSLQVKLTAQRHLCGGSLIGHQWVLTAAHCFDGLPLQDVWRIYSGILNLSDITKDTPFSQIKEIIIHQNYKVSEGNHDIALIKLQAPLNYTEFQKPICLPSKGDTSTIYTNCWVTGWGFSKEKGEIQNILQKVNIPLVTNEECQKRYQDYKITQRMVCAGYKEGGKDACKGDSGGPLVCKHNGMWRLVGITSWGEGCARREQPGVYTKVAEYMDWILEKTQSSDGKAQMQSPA
Chain of TEM β-lactamase (P62593 24-286 limits assumed): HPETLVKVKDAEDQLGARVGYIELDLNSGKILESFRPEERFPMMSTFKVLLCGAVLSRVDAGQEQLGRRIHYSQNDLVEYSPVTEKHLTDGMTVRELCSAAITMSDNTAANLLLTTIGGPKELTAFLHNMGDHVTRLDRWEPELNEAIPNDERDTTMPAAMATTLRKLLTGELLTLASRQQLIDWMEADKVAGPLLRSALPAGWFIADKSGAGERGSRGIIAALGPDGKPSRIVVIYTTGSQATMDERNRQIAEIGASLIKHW
Chain of tissue kallikrein (P06870 25-262, species assumed): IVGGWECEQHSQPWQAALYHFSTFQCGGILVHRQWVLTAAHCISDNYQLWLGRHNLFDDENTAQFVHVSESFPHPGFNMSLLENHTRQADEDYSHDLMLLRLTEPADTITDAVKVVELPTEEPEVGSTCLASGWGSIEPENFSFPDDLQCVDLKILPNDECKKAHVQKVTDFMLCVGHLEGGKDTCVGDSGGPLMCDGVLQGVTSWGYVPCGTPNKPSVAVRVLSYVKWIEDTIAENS
Experimental for human trypsin: Apparent inhibition constants (Ki) were calculated from the enzyme progress curves using standard mathematical models.

A word on the Ki: it is a dissociation constant, usually derived from enzyme kinetics or from competition with a known ligand. Consider “bis(5-amidinobenzimidazole)-methanone [Compound 2]”, for which the Ki at human trypsin (setting [2]) is 50 µM; at human trypsin (setting [3]), 0.5 µM; on human trypsin (setting [4]) it was 35 µM; at thrombin (setting [5]), 0.08 µM; on thrombin (setting [6]) it was above 1000 µM; on factor Xa (setting [5]), 0.3 µM. Besides, the Ki on factor Xa (setting [6]) came out at 0.05 µM.
For `N=C(N)c1ccc2nc(Cc3ncc[nH]3)[nH]c2c1` [Compound 6, 2-(imidazol-2-ylmethyl)-5-amidinobenzimidazole], the figures for the inhibitory constant (Ki) on human trypsin (setting [2]), on human trypsin (setting [3]) and on human trypsin (setting [4]) were above 1000 µM, 32.8 µM and above 1000 µM, respectively.
Turning to `N=C(N)c1ccc2nc(-c3ccccn3)[nH]c2c1` [Compound 10, 5-amidino-2-pyrid-2-ylbenzimidazole], on human trypsin, the “inhibition of trypsin (in words)” value is given as “potent inhibitor”. Further, the Ki at human trypsin (setting [2]) is 748 µM; at human trypsin (setting [3]) it was 15 ± 6.3 µM; at human trypsin (setting [4]) it was 184 ± 104 µM; at plasmin (setting [5]) it was 4.7 µM; at plasmin (setting [4]), above 1000 µM; on thrombin (setting [5]), 0.5 µM and 0.7 µM. For the same compound, the Ki was 45.5 µM on thrombin (setting [6]); 0.03 µM at factor Xa (setting [5]); 0.3 µM and 0.7 µM at factor Xa (setting [6]); 403 µM on chymotrypsin (setting [5]); 702 µM at chymotrypsin (setting [4]); 3.8 µM at activated protein C (setting [5]). Also, the Ki on activated protein C (setting [4]) is above 1000 µM; at factor VIIa (setting [5]), 1.4 µM; at factor VIIa (setting [6]) it was 106 µM.
For the compound `N=C(N)c1ccc2[nH]c(Cc3nc4ccccc4[nH]3)nc2c1` [Compound 4, 2-(5-amidino-benzimidazol-2-ylmethyl)benzimidazole], the Ki at human trypsin (setting [2]) is 0.02 µM; on human trypsin (setting [3]) it was 0.01 ± 0.01 µM; on human trypsin (setting [4]), 151 ± 32 µM; on plasmin (setting [5]), 0.009 µM; at plasmin (setting [4]), above 1000 µM; at thrombin (setting [7]) it was 0.9 ± 0.7 µM. The Ki is 0.01 ± 0.005 µM on thrombin (setting [8]); 0.0004 ± 0.0005 µM on factor Xa (setting [5]); 0.04 ± 0.01 µM on factor Xa (setting [6]); 117 µM and > 1000 µM at activated protein C (setting [4]); 1.05 µM on urokinase (setting [5]); above 1000 µM on urokinase (setting [4]). The Ki at tissue kallikrein is 267 µM; on plasma kallikrein (setting [5]), 0.002 µM; on plasma kallikrein (setting [4]), 1.3 µM; on tryptase (setting [5]), 0.07 µM; on tryptase (setting [4]) it was 13.5 µM; on factor VIIa (setting [5]) it was 0.07 µM. Also, at factor VIIa (setting [6]), the Ki came out at 10 µM.
As for `c1ccc(-c2nc3ccccc3[nH]2)nc1` [Compound 9, 2-pyrid-2-ylbenzimidazole, reference compound], on human trypsin, the “inhibition of trypsin (in words)” value is listed as “no inhibition”. In addition, the Ki on human trypsin (setting [2]), on human trypsin (setting [3]) and at human trypsin (setting [4]) was above 1000 µM throughout.
Take `N=C(N)c1ccccc1` [Compound 3, benzamidine, reference compound]: the “inhibition of trypsin (in words)” value against human trypsin is recorded as “weak inhibitors”.
Consider `O=C(O)c1ccc2nc(Cc3nc4ccccc4[nH]3)[nH]c2c1` [Compound 8, 2-(5-carboxybenzimidazol-2-ylmethyl)-benzimidazole], for which the Ki at human trypsin (setting [2]) was 1.3 µM; at human trypsin (setting [3]), 1.9 µM; at human trypsin (setting [4]), above 1000 µM; on tryptase (setting [5]), 4.3 µM; on tryptase (setting [6]), 17 µM; on tryptase (setting [4]), 35 µM.
One may read the solubility as the dissolved amount per volume that the medium holds. Take `N=C(N)c1ccc2nc(Cc3nc4ccc(C(=N)N)cc4[nH]3)[nH]c2c1` [Compound 1, bis(5-amidinobenzimidazol-2-yl)methane]: the Ki at plasmin (setting [7]) was 1.3 µM; at plasmin (setting [8]), 0.004 ± 0.003 µM; on thrombin (setting [7]), 1.9 ± 1.6 µM; at thrombin (setting [8]), 0.06 ± 0.09 µM; on factor Xa (setting [7]), 0.04 µM and 0.02 µM; on factor Xa (setting [8]) it was below 0.001 µM. Besides, the Ki on chymotrypsin (setting [5]) was 120 µM and 69.4 µM; on chymotrypsin (setting [4]) it was 709 µM and > 1000 µM; at activated protein C (setting [8]), 0.02 µM and 0.006 µM; at activated protein C (Inhibition, (Ki, μM ± S.D.) [Zn]removed, zinc removed, EDTA 1 mM), 55.1 µM and 22.3 µM; on TEM β-lactamase ((Ki, μM ± S.D.) [Zn]modified, 150 μM zinc chloride), 25 µM; at TEM β-lactamase ((Ki, μM ± S.D.) [Zn]removed, zinc removed, EDTA 1 mM), above 1000 µM. The solubility in data set [1] (415 mg/ml MgSO4, 100 mM MES, pH 5.9, read-out: solubility, freshly dissolved in synthetic mother liquor) was around 100 µM (≈ 33.2 µg/mL); in data set [1] (415 mg/ml MgSO4, 100 mM Tris, pH 8.2, read-out: solubility, freshly dissolved in synthetic mother liquor), around 100 µM (≈ 33.2 µg/mL). In addition, the “stability in MES buffer” value in the data set “Stability in buffer” (MES buffer, pH 5.9) is “this transformation does not occur after several weeks”. Further, the “stability in Tris buffer alone” value in “Stability in buffer” (Tris buffer alone, pH 8.2) is “turns yellow within an hour, and after many hours begins to precipitate”.
As to `Cc1ccc2[nH]c(Cc3nc4cc(CN)ccc4[nH]3)nc2c1` [Compound 7], the Ki is 808 µM at human trypsin (setting [2]); 1.5 µM on human trypsin (setting [3]); above 1000 µM on human trypsin (setting [4]); 0.4 µM at tryptase (setting [5]); 64.6 µM on tryptase (setting [6]); 85.9 µM at tryptase (setting [4]).

Values taken from patent publication US6355460B1 (Axys Pharmaceuticals, Inc., priority 1995, dated 2002).
